The record followed here is paper PMC10060569 (Frontiers in Pharmacology, 2023).

For the test, the target named is T1, N190A/S15V-hP2X3R (Homo sapiens, UniProt P56373, N190A/S15V).
T1 construct: expressed in transfected cells; host or cells: Xenopus laevis oocytes (cRNA injection)
T1 sequence (P56373 1-397 S15V/N190A): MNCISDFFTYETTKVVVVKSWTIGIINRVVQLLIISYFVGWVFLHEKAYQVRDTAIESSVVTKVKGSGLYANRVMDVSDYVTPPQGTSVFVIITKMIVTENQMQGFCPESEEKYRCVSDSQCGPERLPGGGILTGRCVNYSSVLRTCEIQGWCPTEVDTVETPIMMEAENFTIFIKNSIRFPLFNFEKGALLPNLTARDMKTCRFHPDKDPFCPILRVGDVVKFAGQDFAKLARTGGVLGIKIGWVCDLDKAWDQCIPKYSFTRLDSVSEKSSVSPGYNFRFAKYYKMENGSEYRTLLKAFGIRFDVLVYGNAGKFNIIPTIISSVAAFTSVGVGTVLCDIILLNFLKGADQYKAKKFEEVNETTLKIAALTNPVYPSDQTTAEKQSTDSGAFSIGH
Nature of the test: TEVC of ATP-induced currents, N190A/S15V-hP2X3R mutant in X. laevis oocytes. The class given is cell-based. The note with it: read-out: % inhibition of 10 µM ATP-induced currents by 10 µM diclofenac. Here is the method:
Ion currents mediated by P2X receptors were evoked by the indicated concentration of ATP or α,β-meATP and were recorded 1 or 2 days after cRNA injection at ambient temperature at a holding potential of −60 mV by two-electrode voltage clamp (TEVC) as previously described ([Hausmann et al., 2006]). Calcium-free ORi^− solution (90 mM NaCl, 1 mM KCl, 2 mM MgCl2, 10 mM HEPES, pH 7.4) was used to avoid bias due to calcium-activated chloride channels (CaCC) endogenously expressed in X. laevis oocytes ([Miledi, 1982]; [Methfessel et al., 1986]). […]
In the case of fast-desensitizing P2XR subtypes (P2X1R and P2X3R), ATP is applied five times in repetition, and the ATP-induced current amplitude in the presence (after pre-incubation) of the antagonist (fourth application) is compared to the arithmetic mean of flanking control ATP-induced current amplitudes in the absence of the antagonist (third and fifth ATP application). […] The correction factor was calculated as the ratio of the fourth ATP-induced current amplitude to the third amplitude (Eq. 3) when the experiment was performed in the absence of the antagonist. […] Since the magnitude of the run-down varies from day to day and batch to batch of oocytes, the correction factor was determined on each day of the experiments and was calculated as the arithmetic mean of several recordings (at least 3–5 and on average 5) on each day. […]

Molecules are shown by their SMILES.

`O=C(O)Cc1ccccc1Nc1c(Cl)cccc1Cl` [Diclofenac, diclofenac]: the inhibition (as a rule, the change of the read-out against control, counted positive when it falls) at 10 µM worked out at 8.1%.
